pIC50: −log10 of the molar value. Where two headings read alike, the source gives them in different places.
Legend:
Assay type in all cases: cell-based
[1] = tested on: BRCA2 mutant ovarian tumor cell line PEO1; test: Cell sensitivity analysis on PEO1 cell line, single and combination treatment, Isobole plot
Protocol: Cell sensitivity analysis was performed to evaluate the synergistic effect of LP-184 and Olaparib on PEO1 cell line, which is an established BRCA2 mutant ovarian tumor cell line. Cells were seeded onto 96-well plate and were continuously exposed to drug treatment for 8.5 days. IC50 data were obtained from Olaparib, LP-184 single treatment and combination treatment.
Cell sensitivity analysis was performed to evaluate the synergistic effect of LP-184 and Talazoparib on PEO1 cell line. Experiments were done as described above. […] Furthermore, the synergistic effect of Talazoparib and LP-184 co-treatment was analyzed by using an Isobole plot (FIG. 4D).

[2] = tested on: OVCAR3 (Ovarian); test: Bliss synergy score (MacSynergy II), LP-100 and PARP inhibitor, OVCAR3; conditions: combination with LP-100, score >10 indicates synergy
Protocol: (§1) This program allows the three-dimensional examination of drug interactions of all data points generated from the checkerboard combination of two inhibitors with Bliss-Independence model (not shown). Confidence bounds are determined from replicate data. […] The volumes of synergy or antagonism can be determined and graphically depicted in three dimensions and represent the relative quantity of synergism or antagonism per change in the two drug concentrations. Synergy and antagonism volumes are based on the Bliss independence model, which assumes that both compounds act independently on different targets. A set of predicted fractional responses faAB under the Bliss independence model is calculated as […] faB with faA and faB representing the fraction of possible responses, e.g. percent (%) inhibition, of compounds A and B at amounts dA and dB, respectively, and describes the percent inhibition of a combination of compounds A and B at amount (dA+dB).

[3] = tested on: 22RV1 (Prostate); test: Bliss synergy score (MacSynergy II), LP-100 and PARP inhibitor, 22RV1; conditions: combination with LP-100, score >10 indicates synergy
Protocol: as §1

[4] = Homo sapiens, PEO1, PEO1, Example 4, FIGS. 4A, 4B, read-out: IC50 single treatment
[5] = PEO1, Talazoparib and LP-184 co-treatment, Example 4
[6] = Homo sapiens, PEO1, 204 h, PEO1, 8.5 days, Olaparib and LP-184 together, FIG. 3C, read-out: IC50 of Olaparib and LP-184 co-treatment (concentration of each drug giving 50% cell growth inhibition together)
[7] = Homo sapiens, PEO1, PEO1, Talazoparib and LP-184 together, FIG. 4C, read-out: IC50 of Talazoparib and LP-184 co-treatment (concentration of each drug giving 50% cell growth inhibition together)
[8] = PEO1, Olaparib and LP-184 co-treatment, Example 3

Structure (SMILES) | pIC50 [1, 4] | fold less in co-treatment compared to single drug treatment [1, 5] | pIC50 [1, 6] | pIC50 [1, 7] | fold less in co-treatment compared to single drug treatment [1, 8] | Bliss Synergy Score between LP-100 and PARP inhibitor [2] | also measured
Cn1ncnc1[C@H]1c2n[nH]c(=O)c3cc(F)cc(c23)N[C@@H]1c1ccc(F)cc1 [Talazoparib, (8S,9R)-5-fluoro-8-(4-fluorophenyl)-9-(1-methyl-1H-1,2,4-triazol-5-yl)-8,-9-dihydro-2H-pyrido[4,3,2de]phthalazin-3 (7H)-one] | 7.88 | 3.64 fold | – | – | – | – | –
CC1=C(CN(O)C(N)=O)C2=C(C)C3(CC3)[C@@](C)(O)C(=O)C2=C1 [LP-184, (−)-hydroxyureamethyl acylfulvene] | 7.06 | 12.14 fold | 7.86 | 8.14 | 7.77 fold | – | pIC50 ([1]; Homo sapiens, PEO1, 204 h, PEO1, Example 4, FIGS. 4A, 4B, read-out: IC50 single treatment): 7.06; pIC50 ([1]; Homo sapiens, PEO1, 204 h, PEO1, continuous exposure 8.5 days, Example 3, FIGS. 3A, 3B, read-out: IC50 single treatment): 6.97
NC(=O)c1cccc2cn(-c3ccc([C@@H]4CCCNC4)cc3)nc12 [Niraparib] | – | – | – | – | – | 10.34 | –
O=C(c1cc(Cc2n[nH]c(=O)c3ccccc23)ccc1F)N1CCN(C(=O)C2CC2)CC1 [Olaparib, 4-[(3-[(4-cyclopropylcarbonyl)piperazin-4-yl]carbonyl)-4-fluorophenyl]met-hyl(2H)-phthalazin-1-one] | – | – | 6.56 | 8.44 | 4.48 fold | 12.19 | pIC50 ([1]; PEO1, continuous exposure 8.5 days, Example 3, FIGS. 3A, 3B, read-out: IC50 single treatment): 5.90
CNCc1ccc(-c2[nH]c3cc(F)cc4c3c2CCNC4=O)cc1 [Rucaparib, 8-Fluoro-2-{4-[(methylamino)methyl]phenyl}-1,3,4,5-tetrahydro-6H-azepino[-5,4,3-cd]indol-6-one] | – | – | – | – | – | 14.11 | Bliss Synergy Score between LP-100 and PARP inhibitor [3]: 18.57

Reference: US20240299322A1, “TREATING CANCERS WITH COMBINATIONS OF PARP INHIBITOR AND ACYLFULVENES” (LANTERN PHARMA INC., priority 2022, published 2024)
